In ChEMBL document CHEMBL5625174, “Are inhibitors of histone deacetylase 8 (HDAC8) effective in hematological cancers especially acute myeloid leukemia (AML) and acute lymphoblastic leukemia (ALL)?” (Eur J Med Chem, 2023):

Experiments:
U-937 = test: Cytotoxicity against human U-937 cells assessed as reduction in cell viability; format: functional, cell-based
Jurkat E6.1 = test: Cytotoxicity against human Jurkat E6.1 cells assessed as reduction in cell viability; format: functional, cell-based
MOLT-4 = test: Cytotoxicity against human MOLT-4 cells assessed as reduction in cell viability; format: functional, cell-based
Histone deacetylase = test: Inhibition of HDAC (unknown origin) using Fluoro-Substrate Peptide as substrate by fluorescence assay; format: protein assay, Homo sapiens
Histone deacetylase 8 = biological target: T1, Histone deacetylase 8 (Homo sapiens, UniProt Q9BY41); test: Inhibition of HDAC8 (unknown origin) by fluorescence based assay
T1 sequence (Q9BY41 whole entry): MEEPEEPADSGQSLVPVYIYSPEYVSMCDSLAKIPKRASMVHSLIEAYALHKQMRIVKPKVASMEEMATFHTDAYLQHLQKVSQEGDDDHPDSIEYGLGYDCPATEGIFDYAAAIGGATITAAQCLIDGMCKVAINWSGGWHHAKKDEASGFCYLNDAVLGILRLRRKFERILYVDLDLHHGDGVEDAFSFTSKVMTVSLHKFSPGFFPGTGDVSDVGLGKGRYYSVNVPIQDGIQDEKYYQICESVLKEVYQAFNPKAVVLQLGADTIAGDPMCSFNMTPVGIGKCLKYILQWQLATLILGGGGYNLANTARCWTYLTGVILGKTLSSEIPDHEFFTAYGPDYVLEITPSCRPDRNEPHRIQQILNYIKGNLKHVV

Structure (SMILES) | IC50 (U-937) [µM] | IC50 (Jurkat E6.1) [µM] | IC50 (MOLT-4) [µM] | IC50 (Histone deacetylase) [µM] | IC50 (Histone deacetylase 8) [µM]
Cc1ccccc1CC(=O)N[C@@H](CCC(=O)O)C(=O)Nc1ccccc1 | > 35 | > 35 | > 35 |  | 
COc1ccc(CC(=O)N[C@@H](CCC(=O)O)C(=O)NC(C)(C)C)cc1 | > 35 | > 35 | > 35 |  | 
O=C(O)CC[C@H](NC(=O)Cc1ccc(Cl)cc1)C(=O)NCc1ccccc1 |  |  |  | > 10 | ≤ 10
O=C(O)CC[C@H](NC(=O)Cc1ccccc1Br)C(=O)Nc1ccccc1 | > 35 | > 35 | < 35 |  | 
O=C(O)CC[C@H](NC(=O)Cc1ccccc1)C(=O)NC1CCCCC1 | ≤ 35 | ≤ 35 | > 35 |  | 
CCCCCCNC(=O)[C@H](CCC(=O)O)NC(=O)Cc1ccc(Br)cc1 | > 35 | ≤ 35 | ≤ 35 | > 10 | ≤ 10
CC(C)CNC(=O)[C@H](CCC(=O)O)NC(=O)Cc1ccc(Br)cc1 | > 35 | > 35 | > 35 |  | 
CCCCCCNC(=O)[C@H](CCC(=O)O)NC(=O)Cc1ccccc1Cl | > 35 | > 35 | > 35 |  | 
CC(C)(C)NC(=O)[C@H](CCC(=O)O)NC(=O)Cc1ccc([N+](=O)[O-])cc1 | > 35 | > 35 | < 35 |  | 
CCCCCNC(=O)[C@H](CCC(=O)O)NC(=O)Cc1ccc(Cl)cc1Cl | < 35 | < 35 | < 35 |  | 
CC(C)(C)NC(=O)[C@H](CCC(=O)O)NC(=O)Cc1ccccc1 | ≤ 35 | ≤ 35 | ≤ 35 |  | 
COc1ccc(CC(=O)N[C@@H](CCC(=O)O)C(=O)NCC(C)C)cc1 | > 35 | > 35 | > 35 |  | 
CC(C)NC(=O)[C@H](CCC(=O)O)NC(=O)Cc1ccccc1F | > 35 | > 35 | > 35 |  | 
CCCCCCNC(=O)[C@H](CCC(=O)O)NC(=O)Cc1ccccc1F | > 35 | < 35 | < 35 |  | 
O=C(O)CC[C@H](NC(=O)Cc1ccccc1)C(=O)Nc1ccccc1 | ≤ 35 | ≤ 35 | ≤ 35 |  | 
CC(C)CNC(=O)[C@H](CCC(=O)O)NC(=O)Cc1ccccc1F | > 35 | ≤ 35 | ≤ 35 |  | 

Structure (SMILES) | IC50 (U-937) [µM] | IC50 (Jurkat E6.1) [µM] | IC50 (MOLT-4) [µM] | IC50 (Histone deacetylase) [µM] | IC50 (Histone deacetylase 8) [µM]
O=C(O)CC[C@H](NC(=O)Cc1ccccc1)C(=O)NCc1ccccc1 | > 35 | > 35 | > 35 |  | 
CCCCCCNC(=O)[C@H](CCC(=O)O)NC(=O)Cc1ccccc1Br | < 35 | < 35 | < 35 |  | 
CCCCCCNC(=O)[C@H](CCC(=O)O)NC(=O)Cc1ccc(Cl)cc1 | ≤ 35 | ≤ 35 | ≤ 35 | > 10 | ≤ 10
CCCNC(=O)[C@H](CCC(=O)O)NC(=O)Cc1ccccc1F | > 35 | > 35 | > 35 |  | 
CCCCCCNC(=O)[C@H](CCC(=O)O)NC(=O)Cc1ccc2ccccc2c1 | > 35 | ≤ 35 | ≤ 35 |  | 
CC(C)NC(=O)[C@H](CCC(=O)O)NC(=O)Cc1ccccc1Br | > 35 | > 35 | > 35 |  | 
O=C(O)CC[C@H](NC(=O)Cc1ccc(Br)cc1)C(=O)NC1CCCCC1 | > 35 | ≤ 35 | ≤ 35 |  | 
CCCCCCNC(=O)[C@H](CCC(=O)O)NC(=O)Cc1ccc(-c2ccccc2)cc1 |  |  |  | > 10 | > 10
CC(C)CNC(=O)[C@H](CCC(=O)O)NC(=O)Cc1ccc(-c2ccccc2)cc1 | > 35 | > 35 | > 35 |  | 
CC(C)NC(=O)[C@H](CCC(=O)O)NC(=O)Cc1ccccc1 | > 35 | ≤ 35 | ≤ 35 |  | 
O=C(O)CC[C@H](NC(=O)Cc1ccc(Cl)cc1Cl)C(=O)NCc1ccccc1 | ≤ 35 | ≤ 35 | ≤ 35 | > 10 | ≤ 10
O=C(O)CC[C@H](NC(=O)Cc1ccc(Br)cc1)C(=O)NCc1ccc(Cl)c(Cl)c1 | > 35 | < 35 | < 35 | > 10 | ≤ 10
COc1ccc(CNC(=O)[C@H](CCC(=O)O)NC(=O)Cc2ccc(Br)cc2)cc1 | > 35 | < 35 | < 35 | > 10 | ≤ 10
O=C(O)CC[C@H](NC(=O)Cc1ccccc1F)C(=O)Nc1ccccc1 | > 35 | < 35 | < 35 |  | 
CC(C)NC(=O)[C@H](CCC(=O)O)NC(=O)Cc1ccc(Cl)cc1 | ≤ 35 | ≤ 35 | ≤ 35 |  | 
